{
  "source": "ChEMBL document CHEMBL4622974",
  "about": "“Leveraging an Open Science Drug Discovery Model to Develop CNS-Penetrant ALK2 Inhibitors for the Treatment of Diffuse Intrinsic Pontine Glioma” (J Med Chem, 2020)",
  "key": {"Activin receptor type-1 [1]": {"molecular_target": "T1, Activin receptor type-1 (Homo sapiens, UniProt Q04771)", "T1 sequence (Q04771 whole entry)": "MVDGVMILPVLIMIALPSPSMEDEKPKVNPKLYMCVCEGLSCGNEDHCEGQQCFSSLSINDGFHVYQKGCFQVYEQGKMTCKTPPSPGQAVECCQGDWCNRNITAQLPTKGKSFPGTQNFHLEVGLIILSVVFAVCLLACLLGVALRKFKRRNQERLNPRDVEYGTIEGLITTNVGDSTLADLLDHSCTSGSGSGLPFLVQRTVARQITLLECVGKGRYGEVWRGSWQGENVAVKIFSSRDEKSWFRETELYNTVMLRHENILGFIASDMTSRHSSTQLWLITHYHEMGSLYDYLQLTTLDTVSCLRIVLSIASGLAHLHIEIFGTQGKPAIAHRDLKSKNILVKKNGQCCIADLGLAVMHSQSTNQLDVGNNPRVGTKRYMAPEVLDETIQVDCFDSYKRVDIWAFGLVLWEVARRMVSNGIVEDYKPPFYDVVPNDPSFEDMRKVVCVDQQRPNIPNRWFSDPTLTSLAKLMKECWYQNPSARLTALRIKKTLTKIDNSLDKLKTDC", "assay": "Inhibition of human ALK2 using casein as substrate in presence of [gamma-33P]-ATP by radiometric hotspot assay"}, "Activin receptor type-1 [2]": {"molecular_target": "T1, Activin receptor type-1", "assay": "Competitive displacement of PBI-6908 from nanoluciferase-fused ALK2 (unknown origin) expressed in HEK293 cells incubated for 2 hrs by NanoBRET NanoGlo substrate based NanoBRET assay", "type": "cell-based"}, "[3]": {"molecular_target": "Tyrosine-protein kinase Lyn (Homo sapiens) (UniProt P07948)", "assay": "Inhibition of LYN (unknown origin)"}, "[4]": {"molecular_target": "Activin receptor type-1-like (Homo sapiens, UniProt P37023)", "assay": "Inhibition of human ALK1 using casein as substrate in presence of [gamma-33P]-ATP by radiometric hotspot assay"}, "[5]": {"molecular_target": "Bone morphogenetic protein receptor type-1A (Homo sapiens, UniProt P36894)", "assay": "Inhibition of human ALK3 using casein as substrate in presence of [gamma-33P]-ATP by radiometric hotspot assay"}, "[6]": {"molecular_target": "Serine/threonine-protein kinase SIK2 (Homo sapiens, UniProt Q9H0K1)", "sequence (Q9H0K1 whole entry)": "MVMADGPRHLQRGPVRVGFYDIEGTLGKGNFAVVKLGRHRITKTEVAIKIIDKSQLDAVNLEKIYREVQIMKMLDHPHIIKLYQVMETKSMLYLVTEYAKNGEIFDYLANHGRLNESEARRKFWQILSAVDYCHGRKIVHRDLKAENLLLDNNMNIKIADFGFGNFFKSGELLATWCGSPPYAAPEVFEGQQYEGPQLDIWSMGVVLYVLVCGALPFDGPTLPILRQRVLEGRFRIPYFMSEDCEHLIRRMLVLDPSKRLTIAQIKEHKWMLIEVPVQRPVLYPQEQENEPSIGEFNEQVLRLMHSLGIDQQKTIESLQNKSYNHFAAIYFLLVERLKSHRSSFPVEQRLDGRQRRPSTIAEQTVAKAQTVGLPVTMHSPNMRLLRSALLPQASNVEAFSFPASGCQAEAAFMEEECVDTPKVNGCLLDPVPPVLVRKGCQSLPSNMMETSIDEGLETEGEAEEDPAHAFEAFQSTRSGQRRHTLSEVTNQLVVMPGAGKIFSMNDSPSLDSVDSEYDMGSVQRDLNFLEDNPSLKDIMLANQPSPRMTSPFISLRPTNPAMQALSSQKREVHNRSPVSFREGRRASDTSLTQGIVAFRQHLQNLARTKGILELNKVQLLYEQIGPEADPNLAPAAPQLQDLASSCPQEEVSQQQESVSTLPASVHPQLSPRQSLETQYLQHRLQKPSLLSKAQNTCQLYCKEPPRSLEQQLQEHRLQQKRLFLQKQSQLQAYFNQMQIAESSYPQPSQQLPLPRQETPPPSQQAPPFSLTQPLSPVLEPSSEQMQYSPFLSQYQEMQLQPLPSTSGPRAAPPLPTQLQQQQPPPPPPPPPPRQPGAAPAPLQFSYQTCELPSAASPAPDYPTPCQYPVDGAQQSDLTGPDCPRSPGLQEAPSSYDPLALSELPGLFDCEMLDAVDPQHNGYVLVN", "assay": "Inhibition of SIK2 (unknown origin)"}, "[7]": {"molecular_target": "Cannabinoid receptor 1 (CB1) (Homo sapiens, UniProt P21554)", "assay": "Inhibition of recombinant human CB1 at 10 uM incubated for 60 mins by scintillation counting method"}, "[8]": {"molecular_target": "Alpha-2A adrenergic receptor (Homo sapiens, UniProt P08913)", "sequence (P08913 whole entry)": "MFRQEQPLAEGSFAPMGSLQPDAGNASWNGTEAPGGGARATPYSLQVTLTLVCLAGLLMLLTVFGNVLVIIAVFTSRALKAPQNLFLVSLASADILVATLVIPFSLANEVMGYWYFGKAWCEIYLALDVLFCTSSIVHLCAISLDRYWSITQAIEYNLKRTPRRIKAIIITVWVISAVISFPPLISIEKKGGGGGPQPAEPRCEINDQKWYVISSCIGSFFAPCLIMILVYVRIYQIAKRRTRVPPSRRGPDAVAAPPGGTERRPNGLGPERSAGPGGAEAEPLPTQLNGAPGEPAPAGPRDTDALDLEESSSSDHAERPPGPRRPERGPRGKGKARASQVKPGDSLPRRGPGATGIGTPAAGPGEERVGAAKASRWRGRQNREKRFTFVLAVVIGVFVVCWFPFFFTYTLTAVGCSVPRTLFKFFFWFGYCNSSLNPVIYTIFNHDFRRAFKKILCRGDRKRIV", "assay": "Inhibition of recombinant human adrenergic alpha2A receptor at 10 uM incubated for 60 mins by scintillation counting method relative to control"}, "hERG (KCNH2)": {"molecular_target": "hERG (KCNH2) (Homo sapiens, UniProt Q12809)", "sequence (Q12809 whole entry)": "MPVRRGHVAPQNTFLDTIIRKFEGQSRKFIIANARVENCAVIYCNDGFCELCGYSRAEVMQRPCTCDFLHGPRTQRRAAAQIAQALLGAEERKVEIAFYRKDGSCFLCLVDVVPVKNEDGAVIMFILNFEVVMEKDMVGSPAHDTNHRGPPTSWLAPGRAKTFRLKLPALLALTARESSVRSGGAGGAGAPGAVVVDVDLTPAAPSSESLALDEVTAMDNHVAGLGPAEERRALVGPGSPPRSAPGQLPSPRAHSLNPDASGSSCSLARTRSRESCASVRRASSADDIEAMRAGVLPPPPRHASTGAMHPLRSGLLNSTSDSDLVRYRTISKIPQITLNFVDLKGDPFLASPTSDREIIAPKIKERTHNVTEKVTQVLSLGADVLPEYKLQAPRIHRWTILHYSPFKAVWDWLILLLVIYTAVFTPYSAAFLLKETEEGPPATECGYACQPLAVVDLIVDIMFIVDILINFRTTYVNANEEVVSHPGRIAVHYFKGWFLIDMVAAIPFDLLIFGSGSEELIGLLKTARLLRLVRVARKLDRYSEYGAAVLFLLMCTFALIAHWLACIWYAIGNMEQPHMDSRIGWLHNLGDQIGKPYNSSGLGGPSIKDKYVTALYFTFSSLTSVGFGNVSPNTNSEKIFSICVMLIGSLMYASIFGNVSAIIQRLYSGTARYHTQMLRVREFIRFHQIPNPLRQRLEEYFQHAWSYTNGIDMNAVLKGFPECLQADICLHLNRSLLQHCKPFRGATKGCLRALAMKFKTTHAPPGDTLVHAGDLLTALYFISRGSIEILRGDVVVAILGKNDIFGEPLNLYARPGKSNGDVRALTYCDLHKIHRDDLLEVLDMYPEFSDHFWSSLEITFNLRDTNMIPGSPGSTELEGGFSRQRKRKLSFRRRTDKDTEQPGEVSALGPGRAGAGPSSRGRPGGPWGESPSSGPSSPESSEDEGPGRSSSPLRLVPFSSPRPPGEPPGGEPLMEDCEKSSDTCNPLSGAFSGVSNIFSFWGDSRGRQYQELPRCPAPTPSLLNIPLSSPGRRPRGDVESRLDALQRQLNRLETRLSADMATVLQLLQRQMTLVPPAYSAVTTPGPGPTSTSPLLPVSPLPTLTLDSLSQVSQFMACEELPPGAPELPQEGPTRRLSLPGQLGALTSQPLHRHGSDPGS", "assay": "Displacement of [3H]dofetilide from recombinant human ERG at 10 uM after 60 mins by scintillation counting analysis", "conditions": "probe [3H]dofetilide"}, "Cannabinoid receptor 1": {"molecular_target": "Cannabinoid receptor 1 (Homo sapiens, UniProt P21554)", "assay": "Inhibition of recombinant human CB1 incubated for 60 mins by scintillation counting method"}, "Cytochrome P450 1A2": {"molecular_target": "Cytochrome P450 1A2 (Homo sapiens, UniProt P05177)", "sequence (P05177 whole entry)": "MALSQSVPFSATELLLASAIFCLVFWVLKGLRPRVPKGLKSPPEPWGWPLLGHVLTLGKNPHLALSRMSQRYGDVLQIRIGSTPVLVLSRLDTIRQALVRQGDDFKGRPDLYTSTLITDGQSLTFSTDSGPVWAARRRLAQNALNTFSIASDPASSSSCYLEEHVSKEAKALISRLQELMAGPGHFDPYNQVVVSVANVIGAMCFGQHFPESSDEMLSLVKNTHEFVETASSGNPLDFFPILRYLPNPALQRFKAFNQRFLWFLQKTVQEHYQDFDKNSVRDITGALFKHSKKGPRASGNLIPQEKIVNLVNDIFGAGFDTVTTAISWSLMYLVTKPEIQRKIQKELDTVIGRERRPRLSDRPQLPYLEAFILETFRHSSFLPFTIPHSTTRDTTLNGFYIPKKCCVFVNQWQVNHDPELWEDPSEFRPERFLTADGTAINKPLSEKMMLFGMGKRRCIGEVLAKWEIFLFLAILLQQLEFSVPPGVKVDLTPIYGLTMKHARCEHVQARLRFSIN", "assay": "Inhibition of CYP1A2 in human liver microsomes using phenacetin as substrate incubated for 20 mins in presence of NADPH by LC/MS/MS analysis", "type": "ADME"}, "Cytochrome P450 2B6": {"molecular_target": "Cytochrome P450 2B6 (Homo sapiens, UniProt P20813)", "sequence (P20813 whole entry)": "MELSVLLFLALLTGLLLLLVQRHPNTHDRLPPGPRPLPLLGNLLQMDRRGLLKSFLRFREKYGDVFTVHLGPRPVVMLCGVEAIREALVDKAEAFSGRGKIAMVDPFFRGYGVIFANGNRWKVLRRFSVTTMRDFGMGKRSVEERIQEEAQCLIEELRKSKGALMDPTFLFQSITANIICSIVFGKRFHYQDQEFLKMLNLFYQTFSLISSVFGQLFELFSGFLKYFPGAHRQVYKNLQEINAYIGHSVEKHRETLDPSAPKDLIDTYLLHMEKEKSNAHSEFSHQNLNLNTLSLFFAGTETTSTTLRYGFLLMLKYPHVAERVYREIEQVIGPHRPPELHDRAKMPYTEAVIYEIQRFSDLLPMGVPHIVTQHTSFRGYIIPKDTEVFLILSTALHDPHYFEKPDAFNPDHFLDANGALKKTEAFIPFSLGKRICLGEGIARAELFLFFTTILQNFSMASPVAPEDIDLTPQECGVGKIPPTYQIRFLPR", "assay": "Inhibition of CYP2B6 in human liver microsomes using bupropion as substrate incubated for 20 mins in presence of NADPH by LC/MS/MS analysis", "type": "ADME"}, "Cytochrome P450 2C8": {"molecular_target": "Cytochrome P450 2C8 (Homo sapiens, UniProt P10632)", "sequence (P10632 whole entry)": "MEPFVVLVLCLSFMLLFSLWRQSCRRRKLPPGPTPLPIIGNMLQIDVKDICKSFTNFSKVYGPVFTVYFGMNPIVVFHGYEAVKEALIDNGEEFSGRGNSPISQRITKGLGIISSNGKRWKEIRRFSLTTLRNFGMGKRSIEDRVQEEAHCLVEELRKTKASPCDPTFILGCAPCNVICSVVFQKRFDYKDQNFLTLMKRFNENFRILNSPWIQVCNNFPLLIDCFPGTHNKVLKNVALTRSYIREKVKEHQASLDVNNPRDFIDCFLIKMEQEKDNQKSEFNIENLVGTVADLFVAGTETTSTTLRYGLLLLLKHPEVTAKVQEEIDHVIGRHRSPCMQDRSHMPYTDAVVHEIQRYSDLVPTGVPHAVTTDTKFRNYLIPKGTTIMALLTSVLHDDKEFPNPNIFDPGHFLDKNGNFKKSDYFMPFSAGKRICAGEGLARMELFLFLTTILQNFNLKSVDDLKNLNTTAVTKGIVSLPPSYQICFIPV", "assay": "Inhibition of CYP2C8 in human liver microsomes using paclitaxel as substrate incubated for 20 mins in presence of NADPH by LC/MS/MS analysis", "type": "ADME"}, "Cytochrome P450 2C19": {"molecular_target": "Cytochrome P450 2C19 (Homo sapiens, UniProt P33261)", "sequence (P33261 whole entry)": "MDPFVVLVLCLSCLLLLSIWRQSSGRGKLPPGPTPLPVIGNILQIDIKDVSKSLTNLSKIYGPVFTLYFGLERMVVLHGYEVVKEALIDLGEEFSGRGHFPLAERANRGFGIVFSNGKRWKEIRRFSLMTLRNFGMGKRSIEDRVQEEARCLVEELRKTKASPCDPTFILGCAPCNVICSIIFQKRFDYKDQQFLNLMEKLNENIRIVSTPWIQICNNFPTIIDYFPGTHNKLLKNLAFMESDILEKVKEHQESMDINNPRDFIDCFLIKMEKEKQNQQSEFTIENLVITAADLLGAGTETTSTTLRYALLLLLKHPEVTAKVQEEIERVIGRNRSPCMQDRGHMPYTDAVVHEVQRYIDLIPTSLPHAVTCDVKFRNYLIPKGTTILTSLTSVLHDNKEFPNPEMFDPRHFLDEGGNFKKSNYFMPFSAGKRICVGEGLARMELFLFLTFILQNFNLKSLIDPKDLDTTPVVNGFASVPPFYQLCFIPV", "assay": "Inhibition of CYP2C19 in human liver microsomes using mephenytoin as substrate incubated for 20 mins in presence of NADPH by LC/MS/MS analysis", "type": "ADME"}, "Cytochrome P450 3A4 [9]": {"molecular_target": "T2, Cytochrome P450 3A4 (Homo sapiens, UniProt P08684)", "T2 sequence (P08684 whole entry)": "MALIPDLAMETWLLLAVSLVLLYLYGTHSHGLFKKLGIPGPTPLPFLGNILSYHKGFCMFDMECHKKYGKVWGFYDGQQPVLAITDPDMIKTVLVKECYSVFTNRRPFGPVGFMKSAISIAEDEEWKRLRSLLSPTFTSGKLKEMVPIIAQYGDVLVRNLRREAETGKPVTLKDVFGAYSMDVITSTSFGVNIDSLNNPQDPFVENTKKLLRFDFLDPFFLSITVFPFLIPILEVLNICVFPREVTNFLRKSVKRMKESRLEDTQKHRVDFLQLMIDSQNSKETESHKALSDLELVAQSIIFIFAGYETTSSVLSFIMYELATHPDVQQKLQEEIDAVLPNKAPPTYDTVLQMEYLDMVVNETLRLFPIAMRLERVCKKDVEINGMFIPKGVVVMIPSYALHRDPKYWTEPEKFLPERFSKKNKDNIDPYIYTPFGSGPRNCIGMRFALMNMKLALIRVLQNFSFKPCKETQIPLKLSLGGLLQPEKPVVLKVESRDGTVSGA", "assay": "Inhibition of CYP3A4 in human liver microsomes using midazolam as substrate incubated for 5 mins in presence of NADPH by LC/MS/MS analysis", "type": "ADME"}, "Cytochrome P450 3A4 [10]": {"molecular_target": "T2, Cytochrome P450 3A4", "assay": "Inhibition of CYP3A4 in human liver microsomes using testosterone as substrate incubated for 10 mins in presence of NADPH by LC/MS/MS analysis", "type": "ADME"}, "[11]": {"assay": "Ratio of drug level in brain to plasma in CD-1 mouse at 10 mg/kg, po measured at 2 hrs", "type": "ADME, organism-based", "conditions": "brain and plasma, read-out: BPR"}, "[12]": {"assay": "Unbound drug level in CD-1 mouse brain at 1 mg/kg, iv measured at 2 hrs", "type": "ADME, organism-based", "conditions": "in vivo"}, "[13]": {"assay": "Drug level in CD-1 mouse brain at 1 mg/kg, iv measured at 2 hrs", "type": "ADME, organism-based", "conditions": "read-out: Drug uptake"}, "[14]": {"assay": "Unbound plasma concentration in CD-1 mouse […] at 1 mg/kg, iv measured at 2 hrs by LC/MS/MS method", "type": "ADME, organism-based", "conditions": "in vivo"}, "[15]": {"assay": "Plasma concentration in CD-1 mouse at 1 mg/kg, iv measured at 2 hrs by LC/MS/MS method", "type": "ADME, organism-based"}, "[16]": {"assay": "Unbound brain-to-plasma concentration ratio in CD-1 mouse plasma at 1 mg/kg, iv measured at 2 hrs", "type": "ADME, organism-based", "conditions": "read-out: K(p,uu,brain)"}, "[17]": {"assay": "Toxicity in C57BL/6 mouse assessed as mouse death at 25 mg/kg, po QD administered for 5 days measured after 24 hrs", "type": "organism-based", "conditions": "in vivo"}, "[18]": {"assay": "Toxicity in C57BL/6 mouse assessed as mouse death at 25 mg/kg, po BID administered for 5 days measured after 24 hrs", "type": "organism-based", "conditions": "in vivo"}, "[19]": {"assay": "Toxicity in C57BL/6 mouse assessed as mouse death at 50 mg/kg, po QD administered for 5 days measured after 24 hrs", "type": "organism-based", "conditions": "in vivo"}, "[20]": {"assay": "Toxicity in C57BL/6 mouse assessed as body weight loss at 25 mg/kg, po BID administered for 5 days measured after 24 hrs relative to control", "type": "organism-based", "conditions": "in vivo"}, "[21]": {"assay": "Toxicity in C57BL/6 mouse assessed as body weight loss at 50 mg/kg, po QD administered for 5 days measured after 24 hrs relative to control", "type": "organism-based", "conditions": "in vivo"}, "[22]": {"assay": "Toxicity in C57BL/6 mouse assessed as gross pathology at 25 mg/kg, po QD administered for 5 days measured after 24 hrs relative to control", "type": "organism-based", "conditions": "in vivo"}, "[23]": {"assay": "Toxicity in C57BL/6 mouse assessed as gross pathology at 25 mg/kg, po BID administered for 5 days measured after 24 hrs relative to control", "type": "organism-based", "conditions": "in vivo"}, "[24]": {"assay": "Toxicity in C57BL/6 mouse assessed as gross pathology at 50 mg/kg, po QD administered for 5 days measured after 24 hrs relative to control", "type": "organism-based", "conditions": "in vivo"}, "[25]": {"assay": "Toxicity in C57BL/6 mouse assessed as gross pathology at 100 mg/kg, po QD administered for 5 days measured after 24 hrs relative to control", "type": "organism-based", "conditions": "in vivo"}, "[26]": {"assay": "Ratio of drug level in brain to plasma in CB17 SCID mouse at 25 mg/kg, po measured at 4 h", "type": "ADME, organism-based", "conditions": "read-out: BPR"}, "[27]": {"assay": "Mutagenicity in Salmonella typhimurium by mini Ames test", "type": "toxicity", "conditions": "salmonella enterica subsp. enterica serovar typhimurium"}},
  "note": "pIC50: −log10 of the molar value. Calls of active or inactive are those of the source. The calls are words filed in the database; no cut-off is given here.",
  "data": [
    {"compound": "COc1cc(-c2cncc(-c3ccc(C4CCN(C)CC4)cc3)c2C)cc(OC)c1OC", "values": [
      {"measurement": "pIC50", "setting": "Activin receptor type-1 [1]", "result": 8.15},
      {"measurement": "pIC50", "setting": "Activin receptor type-1 [2]", "result": 7.54},
      {"measurement": "inhibition", "setting": "[3]", "result": "Active"}
    ]},
    {"compound": "COc1cc(-c2cncc(-c3ccc(N4CCNCC4)cc3)c2C)cc(OC)c1OC", "values": [
      {"measurement": "pIC50", "setting": "[4]", "result": 7.82},
      {"measurement": "pIC50", "setting": "[5]", "result": 6.37},
      {"measurement": "pIC50", "setting": "[6]", "result": "6.03 to 6.47"},
      {"measurement": "inhibition at 1 h, 10 µM", "setting": "[7]", "result": 97, "unit": "%"},
      {"measurement": "inhibition at 1 h, 10 µM", "setting": "[8]", "result": 90, "unit": "%"},
      {"measurement": "inhibition at 1 h, 10 µM", "setting": "hERG (KCNH2)", "result": 69, "unit": "%"},
      {"measurement": "pIC50", "setting": "Cannabinoid receptor 1", "result": 5.76},
      {"measurement": "pIC50", "setting": "Cytochrome P450 1A2", "result": "< 4.52"},
      {"measurement": "pIC50", "setting": "Cytochrome P450 2B6", "result": "< 4.52"},
      {"measurement": "pIC50", "setting": "Cytochrome P450 2C8", "result": "< 4.52"},
      {"measurement": "pIC50", "setting": "Cytochrome P450 2C19", "result": "< 4.52"},
      {"measurement": "pIC50", "setting": "Cytochrome P450 3A4 [9]", "result": "< 4.52"},
      {"measurement": "pIC50", "setting": "Cytochrome P450 3A4 [10]", "result": "< 5.05"},
      {"measurement": "Kp at 2 h", "setting": "[11]", "result": 0.9},
      {"measurement": "Drug uptake(free)", "setting": "[12]", "result": 3.7, "unit": "nM"},
      {"measurement": "concentration at 2 h", "setting": "[13]", "result": 0.123, "unit": "µM"},
      {"measurement": "Cp(f)", "setting": "[14]", "result": 0.014, "unit": "µM"},
      {"measurement": "concentration at 2 h", "setting": "[15]", "result": 0.156, "unit": "µM"},
      {"measurement": "Kp uu at 2 h", "setting": "[16]", "result": 0.3},
      {"measurement": "Activity", "setting": "[17]", "result": "Non-Toxic"},
      {"measurement": "Activity", "setting": "[18]", "result": "Non-Toxic"},
      {"measurement": "Activity", "setting": "[19]", "result": "Non-Toxic"},
      {"measurement": "Activity", "setting": "[20]", "result": "Non-Toxic"},
      {"measurement": "Activity", "setting": "[21]", "result": "Non-Toxic"},
      {"measurement": "Activity", "setting": "[22]", "result": "Non-Toxic"},
      {"measurement": "Activity", "setting": "[23]", "result": "Non-Toxic"},
      {"measurement": "Activity", "setting": "[24]", "result": "Non-Toxic"},
      {"measurement": "Activity", "setting": "[25]", "result": "Non-Toxic"},
      {"measurement": "Kp at 4 h", "setting": "[26]", "result": 1.5},
      {"measurement": "Activity", "setting": "[27]", "result": "Non-Toxic"}
    ]}
  ]
}
